Activity calls are given as the source filed them. No cut-off for these calls is given here.
Key:
Assay type in all cases: functional, cell-based
[1] = test system: LX-2; assay: Antifibrotic activity against human LX-2 cells overexpressing human Adenosine receptor A2a assessed as downregulation of alpha-SMA expression at 10 uM incubated for 18 hrs by Western blotting analysis
[2] = test system: LX-2; assay: Antifibrotic activity against human LX-2 cells overexpressing human Adenosine receptor A2a assessed as downregulation of COL1A1 expression at 10 uM incubated for 18 hrs by Western blotting analysis
[3] = test system: LX-2; assay: Antifibrotic activity against human LX-2 cells overexpressing human Adenosine receptor A2a assessed as downregulation of fibronectin expression at 10 uM incubated for 18 hrs by Western blotting analysis
[4] = test system: LX-2; assay: Antifibrotic activity against human LX-2 cells overexpressing human Adenosine receptor A2a assessed as downregulation of PKA phosphorylation at Thr197 residue at 10 uM incubated for 18 hrs by Western blotting analysis
[5] = biological target: Adenosine receptor A2a (Homo sapiens, UniProt P29274); assay: Antagonist activity at human Adenosine receptor A2a transfected in HEK293 cells co-expressing CRE-luciferase plasmid assessed as reduction in CRE promoter activity by measuring effective concentration incubated for 18 hrs by luciferase based CRE reporter assay
Sequence of Adenosine receptor A2a (P29274 whole entry): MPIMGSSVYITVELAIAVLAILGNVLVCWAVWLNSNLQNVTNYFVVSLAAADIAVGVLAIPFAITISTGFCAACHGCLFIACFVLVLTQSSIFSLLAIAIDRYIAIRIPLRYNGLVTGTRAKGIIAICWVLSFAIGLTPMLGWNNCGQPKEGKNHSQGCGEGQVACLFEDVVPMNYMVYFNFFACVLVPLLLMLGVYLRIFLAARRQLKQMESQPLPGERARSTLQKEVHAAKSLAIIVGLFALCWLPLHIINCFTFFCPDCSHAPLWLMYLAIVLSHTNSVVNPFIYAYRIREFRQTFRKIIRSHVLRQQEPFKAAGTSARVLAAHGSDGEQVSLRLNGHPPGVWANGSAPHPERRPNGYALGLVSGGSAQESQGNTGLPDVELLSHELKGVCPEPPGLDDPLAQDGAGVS

EC50 [5] [µM] | Compound | Activity [1] | Activity [2] | Activity [3] | Activity [4]
 | CNc1nc(C#Cc2ccccc2)nc2c1ncn2Cc1cc(OC)c(OC)c(OC)c1 | inactive | inactive | inactive | inactive
14.6 | CNc1nc(C#Cc2ccccc2)nc2c1ncn2Cc1ccccc1 | Active | Active | Active | Active

Source: ChEMBL document CHEMBL5614411, “Exploring novel A2AAR antagonists: Design, synthesis, and evaluation of 2,6,9-trisubstituted purine derivatives as promising antifibrotic agents” (Bioorg Med Chem, 2024)
